The target of data set [1] is RNA-dependent RNA polymerase (SARS-CoV-2) (Severe acute respiratory syndrome coronavirus 2, UniProt P0DTD1). Description: in vitro enzymatic assay of RdRp activity (AlphaScreen detection). Type of data set: biochemical.
The next data set is described as follows: Kinetic solubility. The format is physicochemical. The protocol:
(§1) The solubility and stability of some compounds of the invention and known compounds were evaluated.

A short description of data set [2]: Microsomal stability in mice. The format is in vitro ADME. The settings on record: mouse microsomes. The protocol: as §1
The nature of a further data set: Plasma stability in mice. Type of data set: in vitro ADME. The following applies: mouse plasma. The protocol:
as §1

[3] abbreviates: RdRp reaction 37°C, 60 minutes, duplicate, 30 minutes preincubation, 1% DMSO.
[4] abbreviates: compound at 25 µM, read-out: % inhib. (25 µM).
Where [5] appears, read: compound at 100 µM, read-out: % inhib. (100 µM).

Like-named read-outs stand apart in the source and are kept apart here.

For the compound `Cc1c(-c2ccc(O)c(O)c2)oc2cc(O)cc(O)c2c1=O` [(5a), 2-(3,4-dihydroxyphenyl)-5,7-dihydroxy-3-methyl-4H-chromen-4-one], 4.3 ± 1.1 µM corresponded to half-maximal inhibition in data set [1] (setting [3]) (IC50). In addition, the inhibition at 25 µM in data set [1] (setting [4]) worked out at 94%. Further, the inhibition at 100 µM in data set [1] (setting [5]) was determined as 99%. Also, the “Kinetic solubility Sk” value in the data set “Kinetic solubility” is recorded as 32 µM.
The compound `CCCc1c(-c2ccc(O)c(O)c2)oc2cc(O)cc(O)c2c1=O` [(5b), 2-(3,4-dihydroxyphenyl)-5,7-dihydroxy-3-propyl-4H-chromen-4-one] gave an IC50 in data set [1] (setting [3]) of 8.8 ± 0.7 µM. Besides, the inhibition at 25 µM in data set [1] (setting [4]) was found to be 72%. Besides, in data set [1] (setting [5]), the inhibition at 100 µM stood at 98%. Also, in the data set “Kinetic solubility”, the “Kinetic solubility Sk” value was 13 µM.
Turning to `CCCCOc1c(-c2ccc(O)c(O)c2)oc2cc(O)cc(O)c2c1=O` [(9a), 3-butoxy-2-(3,4-dihydroxyphenyl)-5,7-dihydroxy-4H-chromen-4-one], in data set [1] (setting [3]), the half-maximal inhibitory concentration (IC50) came to 5.3 ± 1 µM. Besides, the inhibition at 25 µM in data set [1] (setting [4]) came out at 52%. In addition, in data set [1] (setting [5]), the inhibition at 100 µM was found to be 98%. For the same compound, the “Microsomal stability in mice t1/2” value in data set [2] is more than 1 h. For the same compound, in “Kinetic solubility”, the “Kinetic solubility Sk” value was determined as 156 µM. Besides, in “Plasma stability in mice”, the “Plasma stability in mice t1/2” value is more than 2 h.
As to `O=c1c(OCCO)c(-c2ccc(O)c(O)c2)oc2cc(O)cc(O)c12` [(9b), 2-(3,4-dihydroxyphenyl)-5,7-dihydroxy-3-(2-hydroxyethoxy)-4H-chromen-4-one], the IC50 in data set [1] (setting [3]) worked out at 6.1 ± 1 µM. For the same compound, the inhibition at 25 µM in data set [1] (setting [4]) is 83%. In addition, the inhibition at 100 µM in data set [1] (setting [5]) came out at 100%. Besides, the “Microsomal stability in mice t1/2” value in data set [2] was more than 1 h. In “Kinetic solubility”, the “Kinetic solubility Sk” value came to 167 µM. Further, the “Plasma stability in mice t1/2” value in “Plasma stability in mice” was more than 2 h.
`O=c1c(OCCCO)c(-c2ccc(O)c(O)c2)oc2cc(O)cc(O)c12` [(9c), 2-(3,4-dihydroxyphenyl)-5,7-dihydroxy-3-(3-hydroxypropoxy)-4H-chromen-4-one] gave an IC50 in data set [1] (setting [3]) of 5.6 ± 0.1 µM. For the same compound, the inhibition at 25 µM in data set [1] (setting [4]) was 71%. Moreover, the inhibition at 100 µM in data set [1] (setting [5]) stood at 95%. Moreover, in data set [2], the “Microsomal stability in mice t1/2” value is 1 h. The “Kinetic solubility Sk” value in “Kinetic solubility” came to 231 µM. In addition, in “Plasma stability in mice”, the “Plasma stability in mice t1/2” value is 1.5 h.
For `O=c1cc(Cc2ccc(O)c(O)c2)oc2cccc(O)c12` [(13a), 2-(3,4-dihydroxybenzyl)-5-hydroxy-4H-chromen-4-one], in data set [1] (setting [3]), the IC50 came out at 8.5 ± 0.7 µM. Further, the inhibition at 25 µM in data set [1] (setting [4]) amounted to 78%. For the same compound, the inhibition at 100 µM in data set [1] (setting [5]) worked out at 99%. Moreover, the “Microsomal stability in mice t1/2” value in data set [2] was more than 1 h. Besides, the “Kinetic solubility Sk” value in the data set “Kinetic solubility” worked out at 63 µM. The “Plasma stability in mice t1/2” value in “Plasma stability in mice” is more than 2 h.
Compound `CC(c1ccc(O)c(O)c1)c1cc(=O)c2c(O)cccc2o1` (stereo not shown) [(13b), 2-(1-(3,4-dihydroxyphenyl)ethyl)-5-hydroxy-4H-chromen-4-one] gave an IC50 in data set [1] (setting [3]) of 4.1 ± 1.4 µM. For the same compound, the inhibition at 25 µM in data set [1] (setting [4]) came out at 65%. Also, in data set [1] (setting [5]), the inhibition at 100 µM was determined as 100%. For the same compound, in data set [2], the “Microsomal stability in mice t1/2” value is more than 1 h. Moreover, the “Kinetic solubility Sk” value in “Kinetic solubility” is on record as 165 µM. Besides, the “Plasma stability in mice t1/2” value in the data set “Plasma stability in mice” was more than 2 h.
On to `CCCCC(c1ccc(O)c(O)c1)c1cc(=O)c2c(O)cccc2o1` (stereo not shown) [(13c), 2-(1-(3,4-dihydroxyphenyl)pentyl)-5-hydroxy-4H-chromen-4-one], for which the inhibition at 25 µM in data set [1] (setting [4]) worked out at 16%. Moreover, in data set [1] (setting [5]), the inhibition at 100 µM turned out to be 37%.
In the case of `O=c1cc(C(CCCC(F)(F)F)c2ccc(O)c(O)c2)oc2cccc(O)c12` (stereo not shown) [(13d), 2-(1-(3,4-dihydroxyphenyl)-5,5,5-trifluoropentyl)-5-hydroxy-4H-chromen-4-one], the “IC50 (µM)” value in data set [1] (setting [3]) is reported as “NO inhibition”. The inhibition at 25 µM in data set [1] (setting [4]) is 8%. Further, the inhibition at 100 µM in data set [1] (setting [5]) was 10%.
In turn, `O=c1cc(/C=C/c2ccc(O)c(O)c2)oc2cccc(O)c12` [(18), (E)-2-(3,4-dihydroxystyryl)-5-hydroxy-4H-chromen-4-one] gave an IC50 in data set [1] (setting [3]) of 7 ± 1.2 µM. The inhibition at 25 µM in data set [1] (setting [4]) was 54%. In addition, the inhibition at 100 µM in data set [1] (setting [5]) worked out at 94%. Further, in the data set “Kinetic solubility”, the “Kinetic solubility Sk” value is less than 1 µM.
`O=c1cc(CCc2ccc(O)c(O)c2)oc2cccc(O)c12` [(20), 2-(3,4-dihydroxyphenethyl)-5-hydroxy-4H-chromen-4-one] gave an IC50 in data set [1] (setting [3]) of 5.8 ± 0.7 µM. Moreover, the inhibition at 25 µM in data set [1] (setting [4]) was 80%. Moreover, the inhibition at 100 µM in data set [1] (setting [5]) was found to be 97%. In addition, the “Microsomal stability in mice t1/2” value in data set [2] was more than 1 h. Besides, the “Kinetic solubility Sk” value in “Kinetic solubility” turned out to be 67 µM. Moreover, the “Plasma stability in mice t1/2” value in “Plasma stability in mice” is more than 2 h.
In data set [1] (setting [3]), `O=C(Nc1ccc(O)c(O)c1)c1cc(=O)c2c(O)cccc2o1` [(24a), N-(3,4-dihydroxyphenyl)-5-hydroxy-4-oxo-4H-chromen-2-carboxamide] registered an IC50 of 7.1 ± 0.8 µM. In addition, in data set [1] (setting [4]), the inhibition at 25 µM was found to be 80%. Also, the inhibition at 100 µM in data set [1] (setting [5]) was 100%. The “Microsomal stability in mice t1/2” value in data set [2] stood at 1 h. The “Kinetic solubility Sk” value in the data set “Kinetic solubility” is 65 µM. Further, in the data set “Plasma stability in mice”, the “Plasma stability in mice t1/2” value amounted to 1.38 ± 0.217 h.
Consider `O=C(Oc1ccc(O)c(O)c1)c1cc(=O)c2c(O)cccc2o1` [(24b), 3,4-dihydroxyphenyl-5-hydroxy-4-oxo-4H-chromen-2-carboxylate], for which, in data set [1] (setting [3]), the IC50 amounted to 2 ± 1 µM. For the same compound, the inhibition at 25 µM in data set [1] (setting [4]) came to 95%. In data set [1] (setting [5]), the inhibition at 100 µM amounted to 94%. Also, the “Kinetic solubility Sk” value in the data set “Kinetic solubility” is less than 1 µM.
`O=C(OCCc1ccc(O)c(O)c1)c1cc(=O)c2c(O)cccc2o1` [(24c), 3,4-dihydroxyphenethyl-5-hydroxy-4-oxo-4H-chromen-2-carboxylate] displayed an IC50 in data set [1] (setting [3]) of 44.1 ± 1.1 µM. For the same compound, in data set [1] (setting [4]), the inhibition at 25 µM was 36%. Further, in data set [1] (setting [5]), the inhibition at 100 µM amounted to 72%.
The like results for `O=C(NCCNC(=O)c1cc(=O)c2c(O)cccc2o1)c1ccc(O)c(O)c1` [(28), N-(2-(3,4-dihydroxybenzamide)ethyl)-5-hydroxy-4-oxo-4H-chromen-2-carboxamide] were, in that order, 15.9 ± 1.1 µM, 79% and 100%.
In the case of `O=C(NCCNC(=S)Nc1ccc(O)c(O)c1)c1cc(=O)c2c(O)cccc2o1` [(31), N-(2-(3-(3,4-dihydroxyphenyl)thiourea)ethyl)-5-hydroxy-4-oxo-4H-chromen-2-carboxamide], half-maximal inhibition in data set [1] (setting [3]) (IC50) was put at 3.4 ± 1.2 µM. In addition, the inhibition at 25 µM in data set [1] (setting [4]) stood at 86%. The inhibition at 100 µM in data set [1] (setting [5]) was found to be 94%. In addition, in the data set “Kinetic solubility”, the “Kinetic solubility Sk” value is less than 1 µM.
`O=c1cc(-c2ccc(O)c(O)c2)oc2cc(O)cc(O)c12` [luteolin, reference compound]: in data set [2], the “Microsomal stability in mice t1/2” value is more than 1 h. In addition, the “Kinetic solubility Sk” value in the data set “Kinetic solubility” stood at 21 µM. Moreover, the “Plasma stability in mice t1/2” value in the data set “Plasma stability in mice” is more than 2 h.
For `O=c1c(O)c(-c2ccc(O)c(O)c2)oc2cc(O)cc(O)c12` [quercetin, reference compound], in that order: more than 1 h, 16 µM and 0.12 h.
As to `O=c1cc(-c2ccc(O)c(O)c2)oc2cc(F)cc(O)c12` [reference compound], the inhibition at 25 µM in data set [1] (read-out: % inhibition 25 µM) is 0%. Besides, in data set [1] (read-out: % inhibition 100 µM), the inhibition at 100 µM amounted to 25%.
The like results for `O=c1cc(-c2ccc3c(c2)OC(F)(F)O3)oc2cc(O)cc(O)c12` [reference compound] were, in that order, 0% and 51%.
For `COc1cccc2oc(-c3ccc(O)cc3C)cc(=O)c12` [reference compound], in that order: 3% and 34%.

For orientation: IC50 means the concentration that gives 50% inhibition.

These data come from patent EP4215522A1, “DERIVATIVES OF 4-CHROMONE AS INHIBITORS OF THE RDRP POLYMERASE OF SARS-COV-2 VIRUS AND METHOD FOR THE PREPARATION THEREOF” (priority 2022, dated 2023).
